Molecules are shown by their SMILES. Some results are limits rather than exact numbers.

One test relates to HBV. Description: Determination of HBV DNA from the supernatants of HepAD38 cells (anti-HBV activity). Type of test: cell-based, hepatitis B virus. Conditions: Hepatitis B virus, 144 h; HBV DNA in HepAD38 supernatant at day 6; read-out: Cell Activity (EC50). As to the method: Determination of HBV DNA from the Supernatants of HepAD38 Cells
The anti-HBV activity was analysed in the stable transfected cell line HepAD38, which has been described to secrete high levels of HBV virion particles (Ladner et al., 1997). In brief, HepAD38 cells were cultured at 37° C. at 5% CO2 and 95% humidity in 200 μl maintenance medium, which was Dulbecco's modified Eagle's medium/Nutrient Mixture F-12 (Gibco, Karlsruhe), 10% fetal bovine serum (PAN Biotech Aidenbach) supplemented with 50 μg/ml penicillin/streptomycin (Gibco, Karlsruhe), 2 mM L-glutamine (PAN Biotech, Aidenbach), 400 μg/ml G418 (AppliChem, Darmstadt) and 0.3 μg/ml tetracycline. Cells were subcultured once a week in a 1:5 ratio, but were usually not passaged more than ten times. For the assay 60,000 cells were seeded in maintenance medium without any tetracycline into each well of a 96-well plate and treated with serial half-log dilutions of test compound. To minimize edge effects the outer 36 wells of the plate were not used but were filled with assay medium. On each assay plate six wells for the virus control (untreated HepAD38 cells) and six wells for the cell control (HepAD38 cells treated with 0.3 μg/ml tetracycline) were allocated, respectively. In addition, one plate set with reference inhibitors like BAY 41-4109, entecavir, and lamivudine instead of screening compounds were prepared in each experiment. In general, experiments were performed thrice in triplicates. At day 6 HBV DNA from 100 μl filtrated cell culture supernatant (AcroPrep Advance 96 Filter Plate, […] Supor membran, PALL GmbH, Dreieich) was automatically purified on the MagNa Pure LC instrument using the MagNA Pure 96 DNA and Viral NA Small Volume Kit (Roche Diagnostics, Mannheim) according to the instructions of the manufacturer. EC50 values were calculated from relative copy numbers of HBV DNA. In brief, 5 μl of the 100 μl eluate containing HBV DNA were subjected to PCR LC480 Probes Master Kit (Roche) together with 1 μM antisense primer […], 0.5 μM sense primer […], 0.3 μM hybprobes […]-FL and LC640-[…]-PH (TIBMolBiol, Berlin) to a final volume of 12.5 μl. The PCR was performed on the Light Cycler 480 real time system (Roche Diagnostics, Mannheim) using the following protocol: Pre-incubation for 1 min at 95° C., amplification: 40 cycles×(10 sec at 95° C., 50 sec at 60° C., 1 sec at 70° C.), cooling for 10 sec at 40° C. Viral load was quantitated against known standards using HBV plasmid DNA of pCH-9/3091 (Nassal et al., 1990, Cell 63: 1357-1363) and the LightCycler 480 SW 1.5 software (Roche Diagnostics, Mannheim) and EC50 values were calculated using non-linear regression with GraphPad Prism 6 (GraphPad Software Inc., La Jolla, USA).

In a further test the target is HBV core protein (UniProt P03146). Type of test: biochemical. Conditions: read-out: Assembly Activity (IC50); BODIPY-FL labelled core protein, assembly started with NaCl, read after 6 min. On the procedure:
Biochemical Capsid Assembly Assay
The screening for assembly effector activity was done based on a fluorescence quenching assay published by Zlotnick et al. (2007). The C-terminal truncated core protein containing 149 amino acids of the N-terminal assembly domain was fused to a unique cysteine residue at position 150 and was expressed in E. coli using the pET expression system (Merck Chemicals, Darmstadt). Purification of core dimer protein was performed using a sequence of size exclusion chromatography steps. In brief, the cell pellet from 1 L BL21 (DE3) Rosetta2 culture expressing the coding sequence of core protein cloned NdeI/XhoI into expression plasmid pET21b was treated for 1 h on ice with a native lysis buffer (Qproteome Bacterial Protein Prep Kit; Qiagen, Hilden). After a centrifugation step the supernatant was precipitated during 2 h stirring on ice with 0.23 g/ml of solid ammonium sulfate. Following further centrifugation the resulting pellet was resolved in buffer A (100 mM Tris, pH 7.5; 100 mM NaCl; 2 mM DTT) and was subsequently loaded onto a buffer A equilibrated CaptoCore 700 column (GE HealthCare, Frankfurt). The column flow through containing the assembled HBV capsid was dialyzed against buffer N (50 mM NaHCO3 pH 9.6; 5 mM DTT) before urea was added to a final concentration of 3M to dissociate the capsid into core dimers for 1.5 h on ice. The protein solution was then loaded onto a 1 L Sephacryl S300 column. After elution with buffer N core dimer containing fractions were identified by SDS-PAGE and subsequently pooled and dialyzed against 50 mM HEPES pH 7.5; 5 mM DTT. To improve the assembly capacity of the purified core dimers a second round of assembly and disassembly starting with the addition of 5 M NaCl and including the size exclusion chromatography steps described above was performed. From the last chromatography step core dimer containing fractions were pooled and stored in aliquots at concentrations between 1.5 to 2.0 mg/ml at −80° C.
Immediately before labelling the core protein was reduced by adding freshly prepared DTT in a final concentration of 20 mM. After 40 min incubation on ice storage buffer and DTT was removed using a Sephadex G-25 column (GE HealthCare, Frankfurt) and 50 mM HEPES, pH 7.5. For labelling 1.6 mg/ml core protein was incubated at 4° C. and darkness overnight with BODIPY-FL maleimide (Invitrogen, Karlsruhe) in a final concentration of 1 mM. After labelling the free dye was removed by an additional desalting step using a Sephadex G-25 column. Labelled core dimers were stored in aliquots at 4° C. In the dimeric state the fluorescence signal of the labelled core protein is high and is quenched during the assembly of the core dimers to high molecular capsid structures. The screening assay was performed in black 384 well microtiter plates in a total assay volume of 10 μl using 50 mM HEPES pH 7.5 and 1.0 to 2.0 μM labelled core protein. Each screening compound was added in 8 different concentrations using a 0.5 log-unit serial dilution starting at a final concentration of 100 μM, 31.6 μM or 10 μM. In any case the DMSO concentration over the entire microtiter plate was 0.5%. The assembly reaction was started by the injection of NaCl to a final concentration of […] which induces the assembly process to approximately 25% of the maximal quenched signal. 6 min after starting the reaction the fluorescence signal was measured using a Clariostar plate reader (BMG Labtech, Ortenberg) with an excitation of 477 nm and an emission of 525 nm. As 100% and 0% assembly control HEPES buffer containing 2.5 M and 0 M NaCl was used. Experiments were performed thrice in triplicates. EC50 values were calculated by non-linear regression analysis using the Graph Pad Prism 6 software (GraphPad Software, La Jolla, USA).

HBV core protein, sequence (P03146 whole entry, looked up): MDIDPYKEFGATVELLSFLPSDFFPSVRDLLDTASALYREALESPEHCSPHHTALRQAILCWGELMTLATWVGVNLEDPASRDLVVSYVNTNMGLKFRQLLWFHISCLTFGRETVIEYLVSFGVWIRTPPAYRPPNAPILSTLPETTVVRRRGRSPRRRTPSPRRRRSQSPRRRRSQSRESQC

Consider `Nc1nc2c(s1)CN(C(=O)c1cc3c(C4CC4)cccc3[nH]1)CC2` [Example 82, 5-(4-cyclopropyl-1H-indole-2-carbonyl)-4H,5H,6H,7H-[1,3]thiazolo[5,4-c]pyridin-2-amine], for which, in the test on HBV, the half-maximal effective concentration (EC50) fell in the range of 1 to 10 µM. Further, at HBV core protein, the IC50 was 5 to 10 µM.
The matching figures for `O=C(c1cc2ccccc2[nH]1)N1CCc2nc(N[C@H]3COCC[C@@H]3O)sc2C1` (racemic) [Example 339, (±)-3-{[5-(1H-indole-2-carbonyl)-4H,5H,6H,7H-[1,3]thiazolo[5,4-c]pyridin-2-yl]amino}oxan-4-ol]: less than 1 µM and 5 to 10 µM.
The corresponding values for `O=C(c1cc2c(Cl)cccc2[nH]1)N1CCc2nc(N[C@H]3CC[C@@H](O)CC3)sc2C1` [Example 302, (1s,4s)-4-{[5-(4-chloro-1H-indole-2-carbonyl)-4H,5H,6H,7H-[1,3]thiazolo[5,4-c]pyridin-2-yl]amino}cyclohexan-1-ol] are less than 1 µM and less than 5 µM.
Take `COc1cccc2cc(C(=O)N3CCc4nc(N)sc4C3)[nH]c12` [Example 153, 5-(7-methoxy-1H-indole-2-carbonyl)-4H,5H,6H,7H-[1,3]thiazolo[5,4-c]pyridin-2-amine]: the half-maximal effective concentration (EC50) with HBV is less than 100 µM. Moreover, on HBV core protein, the half-maximal inhibitory concentration (IC50) is less than 100 µM.
For the compound `CC(O)CNc1nc2c(s1)CN(C(=O)c1cc3ccccc3[nH]1)CC2` (stereo in doubt) [Example 131, (2S)-1-{[5-(1H-indole-2-carbonyl)-4H,5H,6H,7H-[1,3]thiazolo[5,4-c]pyridin-2-yl]amino}propan-2-ol], the EC50 in the test with HBV was less than 1 µM. For the same compound, the IC50 at HBV core protein was less than 5 µM.
In the case of `CCC(C)(C)CC(=O)Nc1nc2c(s1)CN(C(=O)c1cc3ccccc3[nH]1)CC2` [Example 262, N-[5-(1H-indole-2-carbonyl)-4H,5H,6H,7H-[1,3]thiazolo[5,4-c]pyridin-2-yl]-3,3-dimethylpentanamide], in the test with HBV, the EC50 is less than 1 µM. Moreover, the half-maximal inhibitory concentration (IC50) on HBV core protein was less than 100 µM.
Regarding `O=C(c1cc2ccccc2[nH]1)N1CCc2nc(CNCc3ccccc3)sc2C1` [Example 74, Benzyl({[5-(1H-indole-2-carbonyl)-4H,5H,6H,7H-[1,3]thiazolo[5,4-c]pyridin-2-yl]methyl})amine], in the test on HBV, the 50% effective concentration (EC50) was in the range of 1 to 10 µM. Moreover, the IC50 at HBV core protein was less than 100 µM.
The matching figures for `Cc1ccc2[nH]c(C(=O)N3CCc4nc(N)sc4C3)cc2c1C` [Example 136, 5-(4,5-dimethyl-1H-indole-2-carbonyl)-4H,5H,6H,7H-[1,3]thiazolo[5,4-c]pyridin-2-amine]: 1 to 10 µM and 5 to 10 µM.
The matching figures for `Cc1nc2c(s1)CN(C(=O)c1cc3c(F)c(F)ccc3[nH]1)CC2` [Example 193, 4,5-difluoro-2-{2-methyl-4H,5H,6H,7H-[1,3]thiazolo[5,4-c]pyridine-5-carbonyl}-1H-indole]: less than 1 µM and less than 5 µM.
The corresponding values for `Cc1cccc2[nH]c(C(=O)N3CCc4nc(NCC5(CO)CC5)sc4C3)cc12` [Example 64, [1-({[5-(4-methyl-1H-indole-2-carbonyl)-4H,5H,6H,7H-[1,3]thiazolo[5,4-c]pyridin-2-yl]amino}methyl)cyclopropyl]methanol] are less than 1 µM and less than 5 µM.
`Cc1cc(F)cc2[nH]c(C(=O)N3CCc4nc(NCC5(CO)CC5)sc4C3)cc12` [Example 271, [1-({[5-(6-fluoro-4-methyl-1H-indole-2-carbonyl)-4H,5H,6H,7H-[1,3]thiazolo[5,4-c]pyridin-2-yl]amino}methyl)cyclopropyl]methanol]: the EC50 with HBV was less than 1 µM. Also, the IC50 on HBV core protein was less than 5 µM.
Regarding `Nc1nc2c(s1)CN(C(=O)c1cc3c(C(F)F)cc(F)cc3[nH]1)CC2` [Example 292, 5-[4-(difluoromethyl)-6-fluoro-1H-indole-2-carbonyl]-4H,5H,6H,7H-[1,3]thiazolo[5,4-c]pyridin-2-amine], in the test with HBV, the 50% effective concentration (EC50) was less than 1 µM. Moreover, the IC50 at HBV core protein was less than 5 µM.
As for `CC1(C(=O)Nc2nc3c(s2)CN(C(=O)c2cc4c(Cl)cc(F)cc4[nH]2)CC3)CC1` [Example 305, N-[5-(4-chloro-6-fluoro-1H-indole-2-carbonyl)-4H,5H,6H,7H-[1,3]thiazolo[5,4-c]pyridin-2-yl]-1-methylcyclopropane-1-carboxamide], in the test on HBV, the concentration giving a half-maximal response (EC50) was less than 1 µM.
Still for that read-out and setting: for `CCc1c(F)ccc2[nH]c(C(=O)N3CCc4nc(NCC5CCOC5)sc4C3)cc12` (stereo not drawn) [Example 256, 5-(4-ethyl-5-fluoro-1H-indole-2-carbonyl)-N-[(oxolan-3-yl)methyl]-4H,5H,6H,7H-[1,3]thiazolo[5,4-c]pyridin-2-amine] the value was less than 100 µM; for `O=C(c1cc2ccccc2[nH]1)N1CCc2nc(NC34CC(C3)C4)sc2C1` [Example 431, N-{bicyclo[1.1.1]pentan-1-yl}-5-(1H-indole-2-carbonyl)-4H,5H,6H,7H-[1,3]thiazolo[5,4-c]pyridin-2-amine], less than 1 µM; for `O=C(c1cc2ccccc2[nH]1)N1CCc2nc(Cl)sc2C1` [Example 207, 2-{2-chloro-4H,5H,6H,7H-[1,3]thiazolo[5,4-c]pyridine-5-carbonyl}-1H-indole], less than 100 µM.
On the same count and under the same terms, for `COCC1(Nc2nc3c(s2)CN(C(=O)c2cc4ccccc4[nH]2)CC3)CCC1` [Example 347, 5-(1H-indole-2-carbonyl)-N-[1-(methoxymethyl)cyclobutyl]-4H,5H,6H,7H-[1,3]thiazolo[5,4-c]pyridin-2-amine] the value was less than 1 µM; for `CN1CC(C(=O)Nc2nc3c(s2)CN(C(=O)c2cc4ccccc4[nH]2)CC3)C1` [Example 383, N-[5-(1H-indole-2-carbonyl)-4H,5H,6H,7H-[1,3]thiazolo[5,4-c]pyridin-2-yl]-1-methylazetidine-3-carboxamide], 1 to 10 µM.

A word on the EC50: it is the concentration at which the effect is half-maximal. Broadly, the IC50 is the midpoint of a concentration-inhibition curve.

For the origin of these results see patent publication US11267825B2 (AICURIS GMBH & CO. KG, priority 2017, dated 2022).
